Data: patent US20100286145A1, “ISOPHTHALAMIDE DERIVATIVES INHIBITING BETA-SECRETASE ACTIVITY” (CoMentis, Inc., priority 2007, published 2010)

Experiments:
[1] = Brain pharmacokinetic analysis / brain penetration in rats, i.v. bolus; format: in vivo
Description: (§1) Quantitative analysis was used to determine the concentration of a test inhibitor, N1-((2S,3R)-4-((5-(2-fluoropropan-2-yl)pyridin-3-yl)methylamino)-3-hydroxy-1-phenylbutan-2-yl)-N3-methyl-N3-((4-methylthiazol-2-yl)methyl)isophthalamide, in biological tissues. The test inhibitor was extracted from a variety of biological samples followed by its selective identification and quantification from a standard curve prepared in the same extracted biological matrix. Briefly, this extraction is accomplished through a simple protein precipitation technique performed on collected plasma. The resultant extractions are then quantified using the LC/MS protocol as detailed herein.
(§2) Quantitative analysis was performed through LC/MS analysis. The system was composed of an Eksigent Express LC 100 microflow HPLC system, coupled with an Eksigent CXP C-8AR 0.3*50 mm, or other suitable column, and a Thermo TSQuantum Classic triple quadrupole mass spectrometer running in positive ion, SRM mode. The HPLC buffers were 99.5% H2O, 0.5% formic acid (buffer A) and 99.5% acetonitrile, 0.5% formic acid (buffer B). Typically, a 10 μl aliquot was injected onto the column followed by a 1.5 minute chromatographic analysis. This analysis was conducted at a 20 μl/min flow rate, and composed of a gradient from 15% B to 90% B followed by a 98% B flush to facilitate compound separation and quantitation. Each sample was analyzed in duplicate, with QC, and system blank samples run after every sample set. The column effluent was analyzed in real time by MS/MS to allow the positive identification and quantification of the test inhibitor by compound fingerprint analysis. This was accomplished by allowing only species of 586.3 Da to pass through the first quadrupole, followed by collision induced decay in quadrupole two and scanning analysis of selected daughter ions specific to the test compound in quadrupole three. The collected data was analyzed using the LCQuan software package from Thermo Electron, to determine the levels of the test compound in the samples.
Male Sprague-Dawley Rats (200-400 g) were obtained from Taconic Farms (Hudson, N.Y.) with a pre-implanted jugular vein cannula (JVC) for blood sampling. A solution (5 mg/mL, free base equivalents) of the test inhibitor, N1-((2S,3R)-4-((5-(2-fluoropropan-2-yl)pyridin-3-yl)methylamino)-3-hydroxy-1-phenylbutan-2-yl)-N3-methyl-N3-((4-methylthiazol-2-yl)methyl)isophthalamide mono-citrate salt, was prepared freshly in 35% hydroxypropyl-β-cyclodextrin (HPBCD). Intravenous bolus injection was conducted using a 25 gauge needle via the tail vein. Animals were supplied with water and a commercial rodent diet ad libitum prior to and during the study.
Blood samples (˜100 μl at each time point) for plasma pharmacokinetic (PK) analysis were collected from the JVC cannula into lithium-heparin tubes at 2 min, 5 min, 15 min, 30 min, 45 min, 1 hr, 2 hr, 4 hr, 6 hr and 24 hr post-dose (Group A in Table 2). For compartmental PK analysis, blood and brain were collected from animals in Group B (Table 2) at 15 min, 1 hr, 2 hr, 4 hr, and 6 hr post-dose, with three rats assigned to each time point. Animals were deeply anesthetized with isoflurane and blood collected by cardiocentesis. Plasma separated by centrifugation at 6000 rpm×10 min. Brain hemispheres were subsequently harvested and snap frozen in liquid nitrogen. Plasma and brain samples were subsequently stored at −70° C.
Bioanalysis of the test inhibitor from plasma and brain extracts was performed according to standard procedures. Briefly, 20 μl of plasma was extracted with 100 μl of acetonitrile using a 96-well Solvinert filter plate (Millipore). Samples were subjected to LC/MS/MS analysis using an Eksigent Express LC 100 microflow HPLC system, coupled with an Eksigent CXP C-18AR 0.3*50 mm column, and a Thermo TSQuantum Classic triple quadrupole mass spectrometer running in positive ion, SRM mode. […]

[2] = Plasma pharmacokinetic analysis in rats, i.v. bolus; format: in vivo; settings: male, Sprague-Dawley, rat
Description: as §1
Whole blood from animals dosed with the test inhibitor was collected in lithium heparin anti-coagulant tubes. These samples were centrifuged to allow the subsequent collection of plasma, with plasma aliquots immediately stored at −70° C. For quantitative analysis, the samples were then thawed on ice and a 20 μl aliquot was added to a well of a multi-screen Solvinert filter plate (Millipore). A five-fold volume of acetonitrile was added to each sample to facilitate protein precipitation, the samples were multiply aspirated or shaken to mix and then centrifuged at 4500 rpm for 15 minutes to filter the samples, with the supernatant being collected in an underlying 96 well receiving plate. The receptor plate was then dried via speed vacuum at 40° C. The sample was reconstituted by multiple aspirations with a reconstitution buffer composed of 10% acetonitrile, 10% DMSO, 80% H2O with an internal standard added at a concentration of 100 ng/ml. Standards of the test inhibitor were prepared in 100% DMSO for the generation of a standard curve for sample quantification. The samples range from 1 to 100000 ng/ml, as required for the analysis. A 1 μl aliquot of standard was added per 10 μl of blank plasma to construct a calibration curve, 0.1 ng/ml to 10000 ng/ml, prior to the protein precipitation step again as required for analysis. Quality control samples were prepared identically, from an alternate standard source and a single sample was prepared with an identical volume spike added post precipitation and collection to monitor the extraction efficiency. This method was applicable to plasma from all species currently being tested. Solvinert filter wells were pre-washed with 100 μl of 10% MeOH/90% ACN followed by centrifugation at 4500 RPM for 10 min prior to use.
as §2
Male Sprague-Dawley Rats (200-400 g) were obtained from Taconic Farms (Hudson, N.Y.) with a pre-implanted jugular vein cannula (JVC) for blood sampling. […]

[3] = male, Sprague-Dawley, rat, in vivo, iv, 10 mg/kg

With `Cc1csc(CN(C)C(=O)c2cccc(C(=O)N[C@@H](Cc3ccccc3)[C@H](O)CNCc3cncc(C(C)(C)F)c3)c2)n1` [N1-((2S,3R)-4-((5-(2-fluoropropan-2-yl)pyridin-3-yl)methylam] [N1-((2S,3R)-4-((5-(2-fluoropropan-2-yl)pyridin-3-yl)methylamino)-3-hydroxy-1-phenylbutan-2-yl)-N3-methyl-N3-((4-methylthiazol-2-yl)methyl)isophthalamide] as the molecule, how does the “Penetration (%), brain relative to plasma AUC24 hr” value [1, 3] read?
Its value is 47%.

For `Cc1csc(CN(C)C(=O)c2cccc(C(=O)N[C@@H](Cc3ccccc3)[C@H](O)CNCc3cncc(C(C)(C)F)c3)c2)n1` [N1-((2S,3R)-4-((5-(2-fluoropropan-2-yl)pyridin-3-yl)methylamino)-3-hydroxy-1-phenylbutan-2-yl)-N3-methyl-N3-((4-methylthiazol-2-yl)methyl)isophthalamide], which AUC ([2]; plasma, rats, single 10 mg/kg intravenous dose, read-out: 24 hr plasma AUC) is on record?
Its AUC is 2580 ng·h/mL.

What about the Kp ([1]; male, Sprague-Dawley, rat, in vivo, iv, 10 mg/kg, Penetration (%), brain relative to plasma AUC24 hr) of the same molecule?
The Kp was 0.468.

For `Cc1csc(CN(C)C(=O)c2cccc(C(=O)N[C@@H](Cc3ccccc3)[C@H](O)CNCc3cncc(C(C)(C)F)c3)c2)n1` [test inhibitor, N1-((2S,3R)-4-((5-(2-fluoropropan-2-yl)pyridin-3-yl)methylamino)-3-hydroxy-1-phenylbutan-2-yl)-N3-methyl-N3-((4-methylthiazol-2-yl)methyl)isophthalamide], which concentration at 0.25 h ([2]; in vivo, iv, 10 mg/kg) is on record?
Its concentration at 0.25 h is 2500 ng/mL.

And the concentration at 1 h ([2]; in vivo, iv, 10 mg/kg)?
Its concentration at 1 h is 548 ng/mL.

What about the concentration at 2 h ([2]; in vivo, iv, 10 mg/kg) of the same molecule?
Its concentration at 2 h is 130 ng/mL.

What about the concentration at 4 h ([2]; in vivo, iv, 10 mg/kg) of the same molecule?
Its concentration at 4 h is 31.1 ng/mL.

What about the concentration at 6 h ([2]; in vivo, iv, 10 mg/kg) of the same molecule?
Its concentration at 6 h is 5.7 ng/mL.

What about the concentration at 24 h ([2]; in vivo, iv, 10 mg/kg) of the same molecule?
The concentration at 24 h was 2.2 ng/mL.

And the half-life ([2]; plasma, iv, 10 mg/kg, rats, i.v. bolus 10 mg/kg, read-out: Plasma Terminal phase t1/2 (converted))?
Its half-life is 13.1 h.

What about the half-life ([2]; plasma, iv, 10 mg/kg, rats, single 10 mg/kg intravenous dose, read-out: half-life in plasma) of the same molecule?
Its half-life is 6 to 13 h.

And the AUC(0-t) ([2]; plasma, iv, rats, single dose i.v. 10 mg/kg, read-out: AUC24 hr, Plasma)?
The AUC(0-t) was 2580 ng·h/mL.

What about the “Brain Terminal phase t1/2” value [1, 3] of the same molecule?
The value was 34.3 h.

And the MRT last [1, 3]?
The MRT last was 12 h.

What about the “Penetration (%), brain relative to plasma AUC24 hr” value [1, 3] of the same molecule?
Its value is 46.8%.

And the concentration at 0.25 h [1, 3]?
Its concentration at 0.25 h is 160 ng/mL.

And the concentration at 1 h [1, 3]?
Its concentration at 1 h is 71.1 ng/mL.

And the concentration at 2 h [1, 3]?
Its concentration at 2 h is 72.4 ng/mL.

What about the concentration at 4 h [1, 3] of the same molecule?
The concentration at 4 h was 28 ng/mL.

What about the concentration at 6 h [1, 3] of the same molecule?
Its concentration at 6 h is 42.7 ng/mL.

And the concentration at 24 h [1, 3]?
Its concentration at 24 h is 52.5 ng/mL.

What about the half-life ([1]; male, Sprague-Dawley, rat, in vivo, iv, 10 mg/kg, Brain Terminal phase t1/2) of the same molecule?
The half-life was 34 h.

What about the AUC(0-t) ([1]; male, Sprague-Dawley, rat, in vivo, iv, rats, single dose i.v. 10 mg/kg, read-out: AUC24 hr, Brain) of the same molecule?
The AUC(0-t) was 1210 ng·h/mL.

And the “Brain AUC24 hr” value ([1]; rats, i.v. bolus 10 mg/kg)?
Its value is 1206.2 ng·h/mL.
